{"source": "patent US20020177621A1", "about": "“Antifungal fragrance composition” (priority 2000, published 2002)", "format_in_all_cases": "cell-based", "key": {"[1]": {"system": "Aspergillus niger IFO 9455 (An-1)", "assay": "Fragrant vapor antifungal activity (impregnated paper disc on cover of inverted agar plate)", "conditions": "72 hours at 27° C.; for IZ: Diameter of growth inhibition zone: 20 μl fragrance (or 40 μl of 50% ethanol solution) on disc, >85 = growth inhibited over entire plate; for Growth: Growth status outside the inhibition zone: compared with control", "experimental": "(§1) Physiological saline containing 0.05% Tween-80 was added to a slant on which the test organism grew well, and a spore suspension was produced at 1×10^6 CFU (Colony Forming Units)/ml in accordance with ordinary methods. Potato dextrose agar (PDA: Nissui Pharmaceutical) was used for the medium. To begin with, 10 ml of sterile PDA was pipetted into a Petri dish and after it solidified, another 6 ml of PDA containing 1% of the above described spore suspension was overlaid and solidified to prepare the test agar plate. For the fragrance sample, if the sample is in the form of liquid at ordinary temperatures, 20 μl of liquid was directly impregnated into a paper disc (Advantech, diameter: 8 mm, thick material), while a 50% by weight ethanol solution was prepared for crystals or powder, and 40 μl of that solution was then impregnated into the paper disc.\n(§2) The test agar plate was placed inversely, and the paper disc impregnated with the fragrance sample was placed in the center of the cover of the agar plate, followed by incubating for 72 hours at 27° C. Evaluation was made based on the diameter (mm) of the mold growth inhibition zone. When mold growth was inhibited over the entire surface of the agar plate, the diameter of the growth inhibition zone was reported as >85 mm. At locations where mold grew outside the inhibition zone, the diameter of the spore formation inhibition zone and the degree of growth were recorded by comparing with a control. The molds used in the test are shown in Table 1, wherein these molds consist of mold species that are isolated at high frequencies from rooms and bath rooms.\n(§3) The amount of blended fragrance added to the paper discs was 20 μl each, and only the diameter of the inhibition zone (mm) is indicated for the results."}, "[2]": {"system": "Aureobasidium pullulans IFO 6353 (Ap-1)", "assay": "Fragrant vapor antifungal activity (impregnated paper disc on cover of inverted agar plate)", "conditions": "72 hours at 27° C.; for IZ: Diameter of growth inhibition zone: 20 μl fragrance (or 40 μl of 50% ethanol solution) on disc, >85 = growth inhibited over entire plate; for Growth: Growth status outside the inhibition zone: 20 μl fragrance on disc, compared with control", "experimental": "as §1, §2, §3"}, "[3]": {"system": "Cladosporium cladosporioides IFO 6348 (Cc-1)", "assay": "Fragrant vapor antifungal activity (impregnated paper disc on cover of inverted agar plate)", "conditions": "72 hours at 27° C.; for IZ: Diameter of growth inhibition zone: 20 μl fragrance (or 40 μl of 50% ethanol solution) on disc, >85 = growth inhibited over entire plate; for Growth: Growth status outside the inhibition zone: 20 μl fragrance on disc, compared with control", "experimental": "as §1, §2, §3"}, "[4]": {"system": "An-1 (Aspergillus niger)", "assay": "Confirmation of synergistic action of two fragrances (vapor, paper disc)", "conditions": "for Synergistic effect: second fragrance that shows synergistic action with the fragrance component: combined IZ 20 mm or more larger than sum of single IZ; for Antagonistic effect: second fragrance that shows antagonistic action with the fragrance component: combined IZ 20 mm or more smaller than sum of single IZ; for IZ (diameter of growth inhibition zone) / Growth (growth status outside the inhibition zone) / SI (diameter of spore formation inhibition zone): 72 hours at 27° C.; for IZ (diameter of growth inhibition zone): sample amount on disc: citral 2 μl, benzaldehyde 10 μl, dimethyl tetrahydrobenzaldehyde 20 μl, geraniol 10 μl, octyl aldehyde 20 μl, 9-decen-1-ol 0.5 μl, trans-2-undecenal 3 μl, phenylacetaldehyde 5 μl, A + B = both amounts on one disc; for Growth (growth status outside the inhibition zone): sample amounts as in Table 3 (citral 2 μl, benzaldehyde 10 μl, dimethyl tetrahydrobenzaldehyde 20 μl, geraniol 10 μl, octyl aldehyde 20 μl, 9-decen-1-ol 0.5 μl, trans-2-undecenal 3 μl, phenylacetaldehyde 5 μl; A + B = both); for SI (diameter of spore formation inhibition zone): sample amounts as in Table 3 (citral 2 μl, benzaldehyde 10 μl, dimethyl tetrahydrobenzaldehyde 20 μl, geraniol 10 μl, octyl aldehyde 20 μl, trans-2-undecenal 3 μl, phenylacetaldehyde 5 μl; A + B = both)", "experimental": "An agar plate prepared according to the method of Example 1 was used while using An-1 (Aspergillus niger) for the test fungi. […] 10 μl of the ethanol containing the Table 3 prescribed amount of the fragrance was impregnated into a paper disc. The test agar plate was placed inversely, and the paper disc impregnated with each fragrance alone and a paper disc simultaneously impregnated with two types of fragrances were placed in the center of the cover, followed by incubating for 72 hours at 27° C. and measuring the diameters of the resulting growth inhibition zones.\nThe results obtained as in Example 2 with other combinations are shown in Tables 4 through 7 as combination examples of respective synergistic, additive and antagonistic actions for each fragrant chemical product (a). […] It should be noted that in order to make the table smaller, combinations that have already been listed once are not listed in other columns of the tables."}}, "note": "Several values for one entry are separate records, joined by “and”; a condition that tells them apart may be missing. Equal values may be shown once. Entries after “also recorded” stand apart in the source; their conditions may differ."}
{"smiles": "O=Cc1ccccc1O", "note": "[Salicylic aldehyde]", "values": [{"measurement": "IZ: Diameter of growth inhibition zone", "setting": "[1]", "result": ">85", "unit": "mm"}, {"measurement": "Growth: Growth status outside the inhibition zone", "setting": "[1]; 20 μl fragrance on disc", "result": "none"}, {"measurement": "IZ: Diameter of growth inhibition zone", "setting": "[2]", "result": ">85", "unit": "mm"}, {"measurement": "Growth: Growth status outside the inhibition zone", "setting": "[2]", "result": "none"}, {"measurement": "IZ: Diameter of growth inhibition zone", "setting": "[3]", "result": ">85", "unit": "mm"}, {"measurement": "Growth: Growth status outside the inhibition zone", "setting": "[3]", "result": "none"}, {"measurement": "Synergistic effect: second fragrance that shows synergistic action with the fragrance component", "setting": "[4]; value = combination partner", "result": "Cumin aldehyde and Thymol and 1-Decanol and Citronellol"}]}
{"smiles": "O=CCCc1ccccc1", "note": "[3-Phenylpropanal]", "values": [{"measurement": "IZ: Diameter of growth inhibition zone", "setting": "[1]", "result": ">85", "unit": "mm"}, {"measurement": "Growth: Growth status outside the inhibition zone", "setting": "[1]; 20 μl fragrance on disc", "result": "none"}, {"measurement": "IZ: Diameter of growth inhibition zone", "setting": "[2]", "result": ">85", "unit": "mm"}, {"measurement": "Growth: Growth status outside the inhibition zone", "setting": "[2]", "result": "none"}, {"measurement": "IZ: Diameter of growth inhibition zone", "setting": "[3]", "result": ">85", "unit": "mm"}, {"measurement": "Growth: Growth status outside the inhibition zone", "setting": "[3]", "result": "none"}, {"measurement": "Synergistic effect: second fragrance that shows synergistic action with the fragrance component", "setting": "[4]; value = combination partner", "result": "Citral DMA; also recorded: Citral DEA; also recorded: Citronellal; also recorded: Salicylic aldehyde,"}, {"measurement": "Antagonistic effect: second fragrance that shows antagonistic action with the fragrance component", "setting": "[4]; value = combination partner", "result": "Geraniol"}]}
{"smiles": "O=Cc1ccccc1", "note": "[Benzaldehyde]", "values": [{"measurement": "IZ: Diameter of growth inhibition zone", "setting": "[1]", "result": ">85", "unit": "mm"}, {"measurement": "Growth: Growth status outside the inhibition zone", "setting": "[1]; 20 μl fragrance on disc", "result": "none"}, {"measurement": "IZ: Diameter of growth inhibition zone", "setting": "[2]", "result": ">85", "unit": "mm"}, {"measurement": "Growth: Growth status outside the inhibition zone", "setting": "[2]", "result": "none"}, {"measurement": "IZ: Diameter of growth inhibition zone", "setting": "[3]", "result": ">85", "unit": "mm"}, {"measurement": "Growth: Growth status outside the inhibition zone", "setting": "[3]", "result": "none"}, {"measurement": "IZ (diameter of growth inhibition zone)", "setting": "[4]", "result": 15, "unit": "mm"}, {"measurement": "Growth (growth status outside the inhibition zone)", "setting": "[4]", "result": "slight"}, {"measurement": "SI (diameter of spore formation inhibition zone)", "setting": "[4]", "result": ">85", "unit": "mm"}]}
{"smiles": "CCCCCCCC/C=C/C=O", "note": "[Trans-2-undecenal]", "values": [{"measurement": "IZ: Diameter of growth inhibition zone", "setting": "[1]", "result": ">85", "unit": "mm"}, {"measurement": "Growth: Growth status outside the inhibition zone", "setting": "[1]; 20 μl fragrance on disc", "result": "none"}, {"measurement": "IZ: Diameter of growth inhibition zone", "setting": "[2]", "result": ">85", "unit": "mm"}, {"measurement": "Growth: Growth status outside the inhibition zone", "setting": "[2]", "result": "none"}, {"measurement": "IZ: Diameter of growth inhibition zone", "setting": "[3]", "result": ">85", "unit": "mm"}, {"measurement": "Growth: Growth status outside the inhibition zone", "setting": "[3]", "result": "none"}, {"measurement": "IZ (diameter of growth inhibition zone)", "setting": "[4]", "result": 30, "unit": "mm"}, {"measurement": "Growth (growth status outside the inhibition zone)", "setting": "[4]", "result": "slight"}, {"measurement": "SI (diameter of spore formation inhibition zone)", "setting": "[4]", "result": ">85", "unit": "mm"}, {"measurement": "Synergistic effect: second fragrance that shows synergistic action with the fragrance component", "setting": "[4]; value = combination partner", "result": "Citral DMA; also recorded: Citral DEA; also recorded: Cumin aldehyde; also recorded: Geraniol; also recorded: Citronellol"}, {"measurement": "Antagonistic effect: second fragrance that shows antagonistic action with the fragrance component", "setting": "[4]; value = combination partner", "result": "Eugenol"}]}
{"smiles": "CC(C)=CCCC(C)CCO", "note": "(stereo not shown) [Citronellol]", "values": [{"measurement": "IZ: Diameter of growth inhibition zone", "setting": "[1]", "result": 35, "unit": "mm"}, {"measurement": "SI: Diameter of spore formation inhibition zone", "setting": "[1]; 20 μl fragrance on disc", "result": 55, "unit": "mm"}, {"measurement": "Growth: Growth status outside the inhibition zone", "setting": "[1]; 20 μl fragrance on disc", "result": "good"}, {"measurement": "IZ: Diameter of growth inhibition zone", "setting": "[2]", "result": 35, "unit": "mm"}, {"measurement": "Growth: Growth status outside the inhibition zone", "setting": "[2]", "result": "weak"}, {"measurement": "IZ: Diameter of growth inhibition zone", "setting": "[3]", "result": 35, "unit": "mm"}, {"measurement": "Growth: Growth status outside the inhibition zone", "setting": "[3]", "result": "weak"}, {"measurement": "Synergistic effect: second fragrance that shows synergistic action with the fragrance component", "setting": "[4]; value = combination partner", "result": "Citral DMA,; also recorded: Citral DEA,"}, {"measurement": "Antagonistic effect: second fragrance that shows antagonistic action with the fragrance component", "setting": "[4]; value = combination partner", "result": "Thymol and 9-Decen-1-ol"}, {"measurement": "Additive effect: second fragrance that shows additive action with the fragrance component", "setting": "[4]; value = combination partner, combined IZ intermediate", "result": "1-Nonanal, and 1-Decanol, and Anisaldehyde"}]}
{"smiles": "CC(C)c1ccc(C=O)cc1", "note": "[Cumin aldehyde]", "values": [{"measurement": "IZ: Diameter of growth inhibition zone", "setting": "[1]", "result": ">85", "unit": "mm"}, {"measurement": "Growth: Growth status outside the inhibition zone", "setting": "[1]; 20 μl fragrance on disc", "result": "none"}, {"measurement": "IZ: Diameter of growth inhibition zone", "setting": "[2]", "result": ">85", "unit": "mm"}, {"measurement": "Growth: Growth status outside the inhibition zone", "setting": "[2]", "result": "none"}, {"measurement": "IZ: Diameter of growth inhibition zone", "setting": "[3]", "result": ">85", "unit": "mm"}, {"measurement": "Growth: Growth status outside the inhibition zone", "setting": "[3]", "result": "none"}, {"measurement": "Synergistic effect: second fragrance that shows synergistic action with the fragrance component", "setting": "[4]; value = combination partner", "result": "Citral DEA; also recorded: Geraniol; also recorded: Cinnamic aldehyde DMA,; also recorded: Phenylacetaldehyde; also recorded: Decanol, Anisaldehyde,; also recorded: Citronellol"}]}
